Data published in patent US7074765B2, “Synthetic peptide analogs of Arg-Pro-Pro-Gly-Phe as selective inhibitors of thrombin and thrombin activation of protease activated receptors 1 and 4” (The Regents of the University of Michigan, priority 2003, dated 2006).
Values joined by “and” are separate entries in the source; they are usually repeats but may differ in a detail not shown here. Identical values can stand only once. Square brackets hold non-standard residues; d marks the D form. Ends that are not written are not given here. Oic = O=C(O)[C@@H]1C[C@@H]2CCCC[C@@H]2N1; Igl = N[C@H](C(=O)O)C1Cc2ccccc2C1; Hyp = O=C(O)[C@@H]1C[C@@H](O)CN1; 2Thi = N[C@@H](Cc1cccs1)C(=O)O

T1: recombinant protease activated receptor 1 extracellular domain (rPAR1EC) (Homo sapiens, UniProt P25116)
T1 construct: A portion of the extracellular domain of human PAR1 (Ala^26-Ser^99) (rPAR1EC) was expressed in Escherichia coli; His10-DDDDK (pET19b) (N); made in house; host or cells: E. coli BL21(DE3), pET19b
T1 sequence (P25116 26-99): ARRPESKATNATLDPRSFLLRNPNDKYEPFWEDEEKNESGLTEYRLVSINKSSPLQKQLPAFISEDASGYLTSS

T2: RPPGF (Arg-Pro-Pro-Gly-Phe, SEQ ID NO:4)
T2 sequence: RPPGF

T3: recombinant protease activated receptor 1 extracellular domain (rPAR1EC), human PAR1 Ala26-Ser99, His10-DDDDK fusion (human), P25116
T3 chain: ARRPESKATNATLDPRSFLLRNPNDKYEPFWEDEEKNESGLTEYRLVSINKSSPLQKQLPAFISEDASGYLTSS


Key:
[1] = tested on: platelets in platelet-rich plasma; assay: γ-thrombin-induced platelet aggregation in platelet-rich plasma; assay type: cell-based, human; conditions: minimal concentration that blocked γ-thrombin-induced platelet aggregation in platelet-rich plasma
Experimental: Fresh whole blood was collected and mixed with 0.013 M sodium citrate and platelet-rich plasma was prepared according to the method of Meloni et al., J. Biol. Chem. 266, 6786 (1991). Platelet-rich plasma with a normalized platelet count between 2–2.5×10^8 platelets/ml was added to a cuvette of an aggregometer (Chronlog Corp., Havertown, Pa.), standardized using the protocol of Meloni et al., supra. Peptides to be examined were added to the cuvette and the mixture stabilized for a few moments. Once the baseline was stabilized, γ-thrombin (10–70 nM) (Haematologic Technologies, Essex Junction, Vt.) was added to determine the minimal concentration of the agonist necessary to achieve full platelet aggregation. All investigations with peptides were performed using threshold concentrations of γ-thrombin. Aggregation was allowed to proceed for 5 minutes before stopping. When ADP-induced platelet aggregation studies were performed, 1–5 μM ADP (Sigma) was added to the cuvette containing platelet-rich plasma.

[2] = tested on: normal human citrated plasma; assay: prothrombin time (PT); assay type: biochemical; conditions: peptide at the concentration that inhibits platelet aggregation
Experimental: (§1) The influence of the various peptide formulations used in the present invention on established coagulation-based assays was determined. The activated partial thromboplastin time (APTT) is performed by mixing 0.05 ml normal human citrated plasma with 0.05 ml activated partial thromboplastin reagent purchased from Organon Teknika, Research Triangle Park, N.C. in the absence or presence of a peptide inhibitor. After incubation for 5 min at 37° C., the mixture is recalcified with 0.05 ml of 30 mM calcium chloride and the time to clot formation is measured in an Amelung KC4A instrument (Sigma Chemical Corp, St. Louis, Mo.) (Hasan et al. Thrombosis and Haemostasis. 82, 1182–1187 (1999)). The prothrombin time (PT) is performed by mixing 0.05 ml normal human citrated plasma with 0.05 ml Simplastin (Organon Teknika, Research Triangle Park, N.C.) followed by incubation for 3 min at 37° C. in the absence or presence of a peptide inhibitor. At the addition of 0.05 ml of 30 mM calcium chloride, the time to clot formation is measured in an KC4A instrument (Sigma Chemical Corp, St. Louis, Mo.) (Hasan et al. Thrombosis and Haemostasis. 82, 1182–1187 (1999)). The thrombin clotting time (TCT) is performed by adding 0.1 ml normal human citrated plasma in the absence or presence of a peptide inhibitor and 0.05 ml of a α-thrombin solution such that the final concentration of the thrombin in the entire mixture was 1 nM. Upon addition of the thrombin, the time to clot formation is measured in an KC4A instrument (Sigma Chemical Corp, St. Louis, Mo.). In FIG. 5, peptide TH146 produces a significant prolongation (p<0.05) of the activated partial thromboplastin time at 15 μM, of the prothrombin time at 60 μM, and the thrombin clotting time at 15 μM. In FIG. 6, peptide MAP4-TH146 produced a significant prolongation (p<0.05) of the activated partial thromboplastin time at 0.195 μM, of the prothrombin time at 3.125 μM, and the thrombin clotting time at 0.39 μM.

[3] = tested on: normal human citrated plasma; assay: thrombin clotting time (TCT); assay type: biochemical; conditions: peptide at the concentration that inhibits platelet aggregation
Experimental: as §1

[4] = tested on: normal human lung fibroblasts (NHLF); assay: α-thrombin-induced calcium mobilization in fibroblasts; assay type: cell-based; conditions: 0.1 mM peptide; α-thrombin-induced calcium mobilization in fibroblasts
Experimental: The second assay developed to assess peptides from the combinatorial libraries uses inhibition of α-thrombin-induced calcium mobilization in fibroblasts. Normal human lung fibroblasts (NHLF) were purchased from Clonetics, San Diego, Calif., an affiliate of Bio-Wittaker, Walkersville, Md. The cytoplasmic free Ca^2+ concentration ([Ca^2+]i) was measured using the fluorescent Ca^2+ indicator fura-2 (Molecular Probes, Inc., Eugene, Oreg.). Suspension of fibroblasts in Hepes-Tyrode's buffer were loaded with fura-2 by incubation at 37° C. with 2 μM fura-2/acetoxymethyl ester for 45 minutes according to the method of Rasmussen et al., J. Biol. Chem. 268, 14322 (1993). The labeled fibroblasts were separated from excess probe by washing by centrifugation at 1000 rpm (180×g). Aliquots of the labeled fibroblasts were transferred into a quartz cuvette with a magnetic stirrer, which was then placed in a thermostatically controlled chamber at 37° C. in a fluorescence spectrophotometer (Perkin-Elmer LS50B spectrofluorometer, Chicago, Ill.). Reagents, test peptide, and α-thrombin (0.25–2 nM), were sequentially added directly to the cuvette. The excitation wavelengths varied between 340 and 380 nm. Fluorescence was measured by recording emitted light at 510 nm as reported by Fisher et al., Mol Pharm. 35, 195 (1989). The minimum emission was determined on a solubilized fibroblast sample in the presence of 10 mM EDTA; maximum emission was determined on the same sample with 10 mM Ca^2+ added. The intrafibroblast free Ca^2+ concentration was calculated by the method of Grykiewicz et al., J. Biol. Chem. 260, 3440 (1985). […] The KD for fura-2 was assumed to be 224 nM. Rmax and Rmin are the maximum and minimum fluorescence ratios measured at the end of the experiment, respectively; Sf2 and Sb2 are the fluorescence values at 380 nm in the absence and presence of saturating [Ca^2+], respectively. The reaction was monitored for 3–5 minutes.

[5] = tested on: normal human citrated plasma; assay: activated partial thromboplastin time (APTT); assay type: biochemical; conditions: peptide at the concentration that inhibits platelet aggregation
Experimental: as §1

[6] = molecular target: T1, recombinant protease activated receptor 1 extracellular domain (rPAR1EC); assay: Inhibition of RPPGF-biotin binding to rPAR1EC; conditions: 5 mM peptide, 50 μM RPPGF-biotin (FIG. 7); listed in decreasing order
[7] = molecular target: recombinant protease activated receptor 1 extracellular domain (rPAR1EC), human PAR1 Ala26-Ser99, His10-DDDDK fusion (human) (UniProt P25116); assay: cell-based or functional assay
α-thrombin = α-thrombin (Homo sapiens, UniProt P00734); assay: cell-based or functional assay
thrombin = thrombin (Homo sapiens, UniProt P00734); conditions: read-out: Ki (direct inhibitor of thrombin); cited from earlier work
PC-3 cells = assay: Thrombin-induced motility of prostate cancer cells (Boyden chamber); assay type: cell-based; conditions: 10 μM; 2 nM α-thrombin
Experimental: Motility assays are performed with a modified Boyden chamber (tissue culture-treated, 6.5 mm diameter, 10 μm thickness, 8 μm pores). In the motility assays, 2.5×10^4 cells are plated in the top chamber of non-coated polyethylene teraphthalate (PET) membranes (24-well insert, pore size […]; Becton Dickinson). […] RPMI 10% fetal bovine serum is used as a chemoattractant in the lower chamber. […] The cells that transverse the membranes are stained with Dip-Quick (Jorgensen Laboratories, Loveland, Colo.). Cells in five random fields of view at 200× are counted and expressed as the average number of cells/field of view. […]

[8] = tested on: MAP4-RPPGF (β-Ala-Lys-2Lys-4(Arg-Pro-Pro-Gly-Phe))
[9] = tested on: MAP4-rOicPGF (β-Ala-Lys-2Lys-4(D-Arg-Oic-Pro-Gly-Phe))
[10] = tested on: T2, RPPGF (Arg-Pro-Pro-Gly-Phe, SEQ ID NO:4)
[11] = molecular target: T3, recombinant protease activated receptor …; assay: cell-based or functional assay
[12] = molecular target: human α-thrombin (human), P00734; assay: cell-based or functional assay

Row | Molecule | Concentration of Peptide [mM] That Gives 100% Inhibition [1] | PT (Fold Prolongation over RPPGF) [2] | TCT (Fold Prolongation over RPPGF) [3] | Ca^2^+ % Inhibition At 0.1 mM Peptide [4] | APTT (Fold Prolongation over RPPGF) [5] | other results
1 | D-Arg-Idg-Tic-Gly-Phe [rIdgTicGF] | 0.1 mM | 1.1 Fold | 1.2 Fold | 58.44% | 1.0 Fold | –
2 | D-Arg-Oic-Hyp-Gly-Idg [TH37] | – | – | – | – | – | blocking of RPPGF-biotin binding to rPAR1EC by peptides [6]: blocked
3 | D-Arg-Oic-Hyp-Gly-Idg [rOicHypGIdg] | 0.157 mM | 1.1 Fold | 1.7 Fold | 36.7% | 1.1 Fold | –
4 | D-Arg-Oic-Oic-Gly-Idg [rOicOicGIdg] | 0.257 mM | 1.1 Fold | 1.1 Fold | 28.1% | 1.1 Fold | –
5 | D-Arg-Oic-Pro-Gly-Idg ([dR][Oic]PG[Igl]-NH2; N-terminus assumed; SMILES N=C(N)NCCC[C@@H](N)C(=O)N1[C@H](C(=O)N2CCC[C@H]2C(=O)NCC(=O)N[C@H](C(N)=O)C2Cc3ccccc3C2)C[C@@H]2CCCC[C@@H]21) [rOicPGIdg] | 0.129 mM | 1.1 Fold | 1.5 Fold | 36.2% | 1.1 Fold | blocking of RPPGF-biotin binding to rPAR1EC by peptides [6]: blocked
6 | MAP4-RPPGF (β-Ala-Lys-2Lys-4(Arg-Pro-Pro-Gly-Phe)) (peptide) | – | – | – | – | – | inhibition of thrombocytin cleavage of PAR1 (rPAR1EC, SDS-PAGE) [7]: 0.2 mM and 0.5 mM
7 | MAP4-rOicPGF (β-Ala-Lys-2Lys-4(D-Arg-Oic-Pro-Gly-Phe)) (peptide) | – | – | – | – | – | inhibition of thrombocytin-induced cleavage of recombinant extracellular domain of human PAR1 (SDS-PAGE) [7]: 0.2 mM; concentration giving significant prolongation (p<0.05) of the APTT of normal human plasma (α-thrombin): 0.195 µM; concentration giving significant prolongation (p<0.05) of the PT of normal human plasma (α-thrombin): 3.12 µM; concentration giving significant prolongation (p<0.05) of the TCT of normal human plasma (α-thrombin): 0.39 µM
8 | RPPGFSPFR [Bradykinin, Arg-Pro-Pro-Gly-Phe-Ser-Pro-Phe-Arg] | – | – | – | – | – | Ki (thrombin): 170 to 326 µM
9 | [dR][Oic][Hyp]G[2Thi] [rOicHypGThi] | 0.157 mM | 1.1 Fold | 1.3 Fold | 38% | 1.1 Fold | –
10 | [dR][Oic][Oic]G[2Thi] [rOicOicGThi] | 0.271 mM | 1.1 Fold | 1.1 Fold | 18.2% | 1.2 Fold | –
11 | hirudin [reference compound] | – | – | – | – | – | effect on thrombin-induced PC-3 cell motility (PC-3 cells): block
12 | thrombocytin | – | – | – | – | – | thrombocytin (16.7 nM) hydrolysis of 1 mM H-D-Phe-Pip-Arg-paranitroanilide in the presence of 1 mM MAP4-RPPGF [8]: RPPGF (SEQ ID NO:4) or MAP4-RPPGF inhibits the ability of these enzymes to hydrolyze their substrates; thrombocytin (16.7 nM) hydrolysis of 1 mM H-D-Phe-Pip-Arg-paranitroanilide (S2238), 0-1.0 mM MAP4-TH146 [9]: MAP4-TH146 inhibits these enzymes' ability to hydrolyze their substrates; thrombocytin (16.7 nM) hydrolysis of 1 mM H-D-Phe-Pip-Arg-paranitroanilide in the presence of 2 mM RPPGF [10]: RPPGF (SEQ ID NO:4) or MAP4-RPPGF inhibits the ability of these enzymes to hydrolyze their substrates
13 | RPPGF (modifications not checked) [RPPGF (Arg-Pro-Pro-Gly-Phe, SEQ ID NO:4)] | – | – | – | – | – | inhibition of thrombocytin cleavage of recombinant human PAR1 extracellular domain (SDS-PAGE) [11]: 0.5 mM and 1 mM
14 | [dR][Oic]PGF [rOicPGF (D-Arg-Oic-Pro-Gly-Phe)] | – | – | – | – | – | concentration giving significant prolongation (p<0.05) of the activated partial thromboplastin time [12]: 15 µM; concentration giving significant prolongation (p<0.05) of the prothrombin time [12]: 60 µM; concentration giving significant prolongation (p<0.05) of the thrombin clotting time [12]: 15 µM; concentration giving significant prolongation of the APTT of normal human plasma [12]: 3.7 µM; concentration giving significant prolongation of the PT of normal human plasma [12]: 30 µM; concentration giving significant prolongation of the TCT of normal human plasma [12]: 3.7 µM
